US12492177B2, “RAR-α compounds for inflammatory disease and male contraception” (Orphagen Pharmaceuticals, Inc., priority 2019, dated 2025)

Assays:
Format in all cases: cell-based
[1] = target: T1, RARα (Homo sapiens, UniProt P10276); test: RARα transcriptional assay, antagonist activity; settings: in the presence of 0.5 nM TTNPB
T1 sequence (P10276 1-462): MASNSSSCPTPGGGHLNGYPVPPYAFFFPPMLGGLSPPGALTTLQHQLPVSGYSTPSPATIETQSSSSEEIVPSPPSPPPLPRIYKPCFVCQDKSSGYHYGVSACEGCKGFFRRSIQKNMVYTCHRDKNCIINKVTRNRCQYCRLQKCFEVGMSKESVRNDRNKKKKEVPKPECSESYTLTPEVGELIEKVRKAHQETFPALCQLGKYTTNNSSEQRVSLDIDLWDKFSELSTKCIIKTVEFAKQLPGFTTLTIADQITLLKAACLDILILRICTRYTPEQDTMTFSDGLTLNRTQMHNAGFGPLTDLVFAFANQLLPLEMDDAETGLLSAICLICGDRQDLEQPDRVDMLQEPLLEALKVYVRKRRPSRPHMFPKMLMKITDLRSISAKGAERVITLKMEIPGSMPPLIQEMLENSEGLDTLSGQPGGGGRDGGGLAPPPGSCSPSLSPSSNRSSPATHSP
Description: (§1) Transcriptional assays for RARα, RARβ and RARγ, which measure the antagonist or agonist like activity of the compounds are described in WO 2017/201200 A1 (Thacher, Crowe, Tao and Raheja, Therapeutic compositions containing RAR-alpha antagonists) published on Nov. 23, 2017, which is also incorporated herein by reference. The results obtained in these assays are expressed as EC50 values when measuring agonist activity and IC50 values when measuring antagonist activity in the presence of 0.5 nM TTNPB, a retinoid agonist.

[2] = target: T2, RARγ (Homo sapiens, UniProt P13631); test: RARγ transcriptional assay, agonist activity; settings: agonist mode
T2 sequence (P13631 1-454): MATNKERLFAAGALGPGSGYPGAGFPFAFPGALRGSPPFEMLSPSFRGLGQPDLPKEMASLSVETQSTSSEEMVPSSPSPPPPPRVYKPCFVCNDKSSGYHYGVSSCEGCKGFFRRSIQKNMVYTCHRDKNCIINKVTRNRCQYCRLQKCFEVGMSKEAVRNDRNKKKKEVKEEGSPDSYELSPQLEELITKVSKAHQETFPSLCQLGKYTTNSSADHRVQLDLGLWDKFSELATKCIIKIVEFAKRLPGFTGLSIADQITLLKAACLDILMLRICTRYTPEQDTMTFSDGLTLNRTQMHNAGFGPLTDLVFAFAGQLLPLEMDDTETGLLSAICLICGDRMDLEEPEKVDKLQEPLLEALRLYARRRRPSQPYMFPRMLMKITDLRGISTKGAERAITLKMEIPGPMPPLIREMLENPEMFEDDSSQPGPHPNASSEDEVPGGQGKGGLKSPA
Description: as §1

[3] = target: T1, RARα; test: RARα transcriptional assay, agonist activity; settings: agonist mode
Description: as §1

[4] = target: T2, RARγ; test: RARγ transcriptional assay, antagonist activity; settings: in the presence of 0.5 nM TTNPB
Description: as §1

[5] = target: T3, RARβ (Homo sapiens, UniProt P10826); test: RARβ transcriptional assay, agonist activity; settings: agonist mode
T3 sequence (P10826 1-455): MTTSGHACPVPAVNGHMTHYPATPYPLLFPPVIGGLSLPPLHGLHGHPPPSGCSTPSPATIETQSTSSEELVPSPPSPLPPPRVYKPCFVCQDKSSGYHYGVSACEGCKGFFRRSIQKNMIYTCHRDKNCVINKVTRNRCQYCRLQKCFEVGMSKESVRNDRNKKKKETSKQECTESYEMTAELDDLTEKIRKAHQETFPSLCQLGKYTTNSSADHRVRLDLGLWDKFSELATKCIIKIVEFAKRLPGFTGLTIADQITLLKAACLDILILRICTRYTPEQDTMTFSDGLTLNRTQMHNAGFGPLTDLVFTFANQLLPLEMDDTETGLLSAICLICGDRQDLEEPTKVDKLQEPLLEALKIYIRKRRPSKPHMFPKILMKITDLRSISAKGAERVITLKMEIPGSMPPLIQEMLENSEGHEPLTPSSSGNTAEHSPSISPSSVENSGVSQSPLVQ
Description: as §1

[6] = target: T3, RARβ; test: RARβ transcriptional assay, antagonist activity; settings: in the presence of 0.5 nM TTNPB
Description: as §1

Row | IC50 [1] | EC50 [2] | EC50 [3] | IC50 [4] | EC50 [5] | IC50 [6] | Antagonist Activity RARα Efficacy [1] | Structure (SMILES)
1 | > 1000 nM | 101 to 1000 nM | < 1 nM | > 1000 nM | 11 to 100 nM | > 1000 nM | – | CC(C)C1=CC(C)(C)Oc2c(Br)cc(C(=O)Nc3ccc(C(=O)O)c(F)c3)cc21 [Compound 33]
2 | 1 to 10 nM | > 1000 nM | 11 to 100 nM | > 1000 nM | 101 to 1000 nM | > 1000 nM | – | CC#CC1=CC(C)(C)Oc2c(Br)cc(C(=O)Nc3ccc(C(=O)O)c(F)c3)cc21 [Compound 37]
3 | < 1 nM | > 1000 nM | > 1000 nM | > 1000 nM | > 1000 nM | > 1000 nM | † (†, RARα antagonist efficacy >85%) | CC1(C)C=C([C@H]2CC[C@@H](C)CC2)c2cc(C(=O)Nc3ccc(C(=O)O)c(F)c3)cc(Br)c2O1 [Compound 36]
4 | < 1 nM | > 1000 nM | > 1000 nM | 101 to 1000 nM | > 1000 nM | 101 to 1000 nM | † (†, RARα antagonist efficacy >85%) | CC[C@H]1CC[C@H](C2=CC(C)(C)Oc3c(Br)cc(C(=O)Nc4ccc(C(=O)O)c(F)c4)cc32)CC1 [Compound 39]
5 | < 1 nM | > 1000 nM | > 1000 nM | 11 to 100 nM | > 1000 nM | 11 to 100 nM | † (†, RARα antagonist efficacy >85%) | CC1(C)CCC(C2=CC(C)(C)Oc3c(Br)cc(C(=O)Nc4ccc(C(=O)O)c(F)c4)cc32)CC1 [Compound 38]
6 | > 1000 nM | > 1000 nM | > 1000 nM | > 1000 nM | > 1000 nM | > 1000 nM | – | CN1CCC(C2=CC(C)(C)Oc3c(Br)cc(C(=O)Nc4ccc(C(=O)O)c(F)c4)cc32)CC1 [Compound 32]
7 | < 1 nM | > 1000 nM | > 1000 nM | > 1000 nM | > 1000 nM | 11 to 100 nM | † (†, RARα antagonist efficacy >85%) | CC1CCC(C2=CC(C)(C)Oc3c(Br)cc(C(=O)Nc4ccc(C(=O)O)c(F)c4)cc32)CC1 (stereo not drawn) [Compound 35]
8 | < 1 nM | > 1000 nM | > 1000 nM | > 1000 nM | > 1000 nM | > 1000 nM | † (†, RARα antagonist efficacy >85%) | CC[C@H]1CC[C@@H](C2=CC(C)(C)Oc3c(Br)cc(C(=O)Nc4ccc(C(=O)O)c(F)c4)cc32)CC1 [Compound 40]
9 | 11 to 100 nM | 101 to 1000 nM | 101 to 1000 nM | > 1000 nM | 101 to 1000 nM | > 1000 nM | † (†, RARα antagonist efficacy >85%) | CC1(C)C=C(C2CCOCC2)c2cc(C(=O)Nc3ccc(C(=O)O)c(F)c3)cc(Br)c2O1 [Compound 34]
